The source of these data is ChEMBL document CHEMBL3886759, “Indole-1-carboxamides as kinase inhibitors” (2016).

In experiment [1] the target is Vascular endothelial growth factor receptor 2 (Homo sapiens, UniProt P35968). Description: (§1) Kinase Assay: Biochemical KDR kinase assays were performed in 96 well microtiter plates that were coated overnight with 75 μg/well of poly-Glu-Tyr (4:1) in 10 mM Phosphate Buffered Saline (PBS), pH 7.4. The coated plates were washed with 2 mls per well PBS+0.05% Tween-20 (PBS-T), blocked by incubation with PBS containing 1% BSA, then washed with 2 mls per well PBS-T prior to starting the reaction. Reactions were carried out in 100 μL reaction volumes containing 2.7 μM ATP in kinase buffer (50 mM Hepes buffer pH 7.4, 20 mM MgCl2, 0.1 mM MnCl2 and 0.2 mM Na3VO4). Test compounds were reconstituted in 100% DMSO and added to the reaction to give a final DMSO concentration of 5%. Reactions were initiated by the addition 20 ul per well of kinase buffer containing 200-300 ng purified cytoplasmic domain KDR protein (BPS Bioscience, San Diego, Calif.).
Chain of Vascular endothelial growth factor receptor 2 (P35968 whole entry): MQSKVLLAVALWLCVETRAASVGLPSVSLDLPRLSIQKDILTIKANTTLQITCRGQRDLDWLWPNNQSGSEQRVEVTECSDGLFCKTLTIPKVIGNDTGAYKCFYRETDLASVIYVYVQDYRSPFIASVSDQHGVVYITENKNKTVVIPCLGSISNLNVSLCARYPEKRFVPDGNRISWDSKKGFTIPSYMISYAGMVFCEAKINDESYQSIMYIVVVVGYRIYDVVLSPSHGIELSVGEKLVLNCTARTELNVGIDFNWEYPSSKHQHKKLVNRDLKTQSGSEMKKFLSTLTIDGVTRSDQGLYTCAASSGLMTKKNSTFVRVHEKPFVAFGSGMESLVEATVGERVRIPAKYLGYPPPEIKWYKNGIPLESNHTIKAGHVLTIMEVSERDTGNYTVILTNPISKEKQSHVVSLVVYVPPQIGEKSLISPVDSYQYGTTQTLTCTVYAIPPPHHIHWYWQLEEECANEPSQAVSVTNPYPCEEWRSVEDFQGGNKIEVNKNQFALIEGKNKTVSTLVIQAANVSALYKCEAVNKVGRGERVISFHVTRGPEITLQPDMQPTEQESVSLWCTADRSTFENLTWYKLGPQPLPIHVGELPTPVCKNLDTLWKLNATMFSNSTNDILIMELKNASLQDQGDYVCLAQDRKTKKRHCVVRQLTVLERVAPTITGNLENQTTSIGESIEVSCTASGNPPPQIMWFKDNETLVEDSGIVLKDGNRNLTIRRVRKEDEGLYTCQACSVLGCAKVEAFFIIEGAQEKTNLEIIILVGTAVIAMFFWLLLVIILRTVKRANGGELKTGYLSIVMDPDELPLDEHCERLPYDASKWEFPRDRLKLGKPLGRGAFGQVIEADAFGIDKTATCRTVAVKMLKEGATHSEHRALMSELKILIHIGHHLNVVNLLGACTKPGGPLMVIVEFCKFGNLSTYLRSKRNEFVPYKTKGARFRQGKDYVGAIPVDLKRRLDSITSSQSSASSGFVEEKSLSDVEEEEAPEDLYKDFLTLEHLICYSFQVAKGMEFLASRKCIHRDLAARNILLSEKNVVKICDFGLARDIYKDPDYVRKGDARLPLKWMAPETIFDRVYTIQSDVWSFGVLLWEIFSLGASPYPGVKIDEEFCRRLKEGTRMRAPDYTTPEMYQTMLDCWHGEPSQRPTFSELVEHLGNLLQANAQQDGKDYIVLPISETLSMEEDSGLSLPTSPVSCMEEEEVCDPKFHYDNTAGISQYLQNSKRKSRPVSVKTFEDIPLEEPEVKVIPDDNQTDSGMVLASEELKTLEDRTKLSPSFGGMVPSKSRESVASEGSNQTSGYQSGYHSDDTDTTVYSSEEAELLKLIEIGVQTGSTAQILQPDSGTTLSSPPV

For experiment [2], the target named is Platelet-derived growth factor receptor beta (Homo sapiens, UniProt P09619). The experiment is described as §1, with “Biochemical PDGFRβ” for “Biochemical KDR”, “75 μg” for “75 μg/well”, “containing 36” for “containing 2.7”, “domain PDGFR-b” for “domain KDR”, “protein (Millipore). Following a 60 minute incubation at 30° C., the reactions were washed 2 mls per well PBS-T.” for “protein (BPS Bioscience, San Diego, Calif.).”.
Chain of Platelet-derived growth factor receptor beta (P09619 whole entry): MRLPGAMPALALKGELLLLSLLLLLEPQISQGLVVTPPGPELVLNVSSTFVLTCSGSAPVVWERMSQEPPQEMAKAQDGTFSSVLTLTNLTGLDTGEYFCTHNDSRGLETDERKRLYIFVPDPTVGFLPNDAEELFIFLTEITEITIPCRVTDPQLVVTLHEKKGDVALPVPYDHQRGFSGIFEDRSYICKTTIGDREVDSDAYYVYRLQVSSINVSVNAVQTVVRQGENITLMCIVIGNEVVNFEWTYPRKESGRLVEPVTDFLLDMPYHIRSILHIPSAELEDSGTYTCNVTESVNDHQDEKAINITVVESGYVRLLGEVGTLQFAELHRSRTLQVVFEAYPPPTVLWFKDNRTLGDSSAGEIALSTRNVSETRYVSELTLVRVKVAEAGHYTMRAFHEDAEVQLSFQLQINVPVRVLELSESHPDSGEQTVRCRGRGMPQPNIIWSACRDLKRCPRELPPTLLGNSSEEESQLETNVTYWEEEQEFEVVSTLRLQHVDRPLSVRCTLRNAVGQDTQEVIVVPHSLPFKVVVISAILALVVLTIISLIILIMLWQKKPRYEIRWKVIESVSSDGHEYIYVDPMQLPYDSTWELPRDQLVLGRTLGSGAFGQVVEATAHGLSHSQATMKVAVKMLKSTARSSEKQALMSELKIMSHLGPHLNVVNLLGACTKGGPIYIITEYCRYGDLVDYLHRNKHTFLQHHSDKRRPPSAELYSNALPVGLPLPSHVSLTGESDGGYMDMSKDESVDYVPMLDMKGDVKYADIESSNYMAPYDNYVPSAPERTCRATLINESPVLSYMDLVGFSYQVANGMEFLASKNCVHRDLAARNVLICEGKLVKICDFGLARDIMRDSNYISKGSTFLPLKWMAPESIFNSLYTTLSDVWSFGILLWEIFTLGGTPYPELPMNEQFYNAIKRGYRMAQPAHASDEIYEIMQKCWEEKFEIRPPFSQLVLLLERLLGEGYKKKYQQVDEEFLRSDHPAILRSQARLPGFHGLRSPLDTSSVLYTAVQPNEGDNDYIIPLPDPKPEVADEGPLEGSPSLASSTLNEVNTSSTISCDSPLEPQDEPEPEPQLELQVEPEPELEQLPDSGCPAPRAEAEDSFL

With `CCc1cccc(NC(=O)Nc2ccc(-c3cc4ccccc4n3C(N)=O)cc2)c1`, the IC50 was determined as 3 nM in experiment [1] and 10 nM in experiment [2].
